One assay deals with a variety of test species. Kind of assay: Post-emergence herbicidal activity. Particulars: rate 250 g/ha, evaluated after 13 days. In kind it is in vivo. Set-up: key to ABUTH (Abutilon theophrasti) damage score / AMARE (Amaranthus retroflexus) damage score / ALOMY (Alopecurus myosuroides) damage score / ECHCG (Echinochloa crus-galli) damage score / ZEAMX (Zea mays) damage score / SOLNI (Solanum nigrum) damage score: 0 = no damage to plant, 5 = total damage to plant. In outline:
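Damage on a 0–5 scale (5 = plant killed) was rated 13 days after treatment. Test species had been sown in standard soil and raised 8 days under glasshouse conditions of 24/16 °C, 14 h light, 65% humidity. They were then sprayed with aqueous solution from an acetone/water 50:50 formulation containing 0.5% Tween 20.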
For `COC1=C(C)C(=O)N(c2cc(Cl)c(-c3ccccc3)cn2)C1O` (stereo not drawn) [AD70], the “ABUTH (Abutilon theophrasti) damage score” value (shortened to “ABUTH”) is on record as 4, the “ALOMY (Alopecurus myosuroides) damage score” value (“ALOMY” below) was found to be 3, the “AMARE (Amaranthus retroflexus) damage score” value (“AMARE” below) is 5 and the “ECHCG (Echinochloa crus-galli) damage score” value (“ECHCG” below) turned out to be 1. Moreover, the “SETFA (Setaria faberi) damage score” value was determined as 3 and the “ZEAMX (Zea mays) damage score” value was found to be 1.

As for `COC1=C(C)C(=O)N(c2cc(C(F)(F)F)c(OC3CCC3)cn2)C1O` (stereo not drawn) [AD75], the “ABUTH” value stood at 5, the “ALOMY” value was 4, the “AMARE” value is listed as 5 and the “ECHCG” value was found to be 2. Also, the “SETFA (Setaria faberi) damage score” value stood at 4 and the “ZEAMX (Zea mays) damage score” value is 1.

With `COC1=C(C)C(=O)N(c2cc(C(F)(F)F)c(OCCc3cccs3)cn2)C1O` (stereo not drawn) [AD76], the “ABUTH” value turned out to be 4, the “ALOMY” value is 2, the “AMARE” value was found to be 4 and the “ECHCG” value is 1. The “SETFA (Setaria faberi) damage score” value is 3 and the “ZEAMX (Zea mays) damage score” value was found to be 1.

Staying with this assay, now noted: rate 1000 g/ha, evaluated after 13 days.
In the case of `COC1=C(C)C(=O)N(c2cc(C(F)(F)Cl)ccn2)C1O` (stereo not drawn) [AD67], the “ABUTH” value came to 5, the “ALOMY” value was found to be 4, the “AMARE” value is given as 5 and the “ECHCG” value is given as 5. The “SETFA (Setaria faberi) damage score” value is 5 and the “ZEAMX (Zea mays) damage score” value is reported as 1.

For `CCOC(=O)c1cnc(N2C(=O)C(C)=C(OC)C2O)cc1Cl` (stereo not drawn) [AD68], the “ABUTH” value came out at 3, the “ALOMY” value came to 1, the “AMARE” value is 5 and the “ECHCG” value came to 4. Also, the “SETFA (Setaria faberi) damage score” value is 5 and the “ZEAMX (Zea mays) damage score” value is on record as 1.

On to `COC1=C(C)C(=O)N(c2cc(Cl)c(Br)cn2)C1O` (stereo not drawn) [AD69], for which the “ABUTH” value is on record as 0, the “ALOMY” value is reported as 2, the “AMARE” value stood at 4 and the “ECHCG” value is recorded as 3. In addition, the “SETFA (Setaria faberi) damage score” value came out at 5 and the “ZEAMX (Zea mays) damage score” value was found to be 1.

On to `CCc1cc(N2C(=O)C(C)=C(OC)C2O)ncc1C=C(C)C` (stereo not drawn) [AD71], for which the “ABUTH” value was determined as 4, the “ALOMY” value is 2, the “AMARE” value is listed as 5 and the “ECHCG” value was 3. Moreover, the “SETFA (Setaria faberi) damage score” value is recorded as 5 and the “ZEAMX (Zea mays) damage score” value was found to be 2.

Turning to `CCCOc1cnc(N2C(=O)C(C)=C(OC)C2O)cc1C(F)(F)F` (stereo not drawn) [AD72], the “ABUTH” value came to 5, the “ALOMY” value was 5, the “AMARE” value is 5 and the “ECHCG” value was 5. In addition, the “SETFA (Setaria faberi) damage score” value is recorded as 5 and the “ZEAMX (Zea mays) damage score” value was determined as 2.

Regarding `C=CCCOc1cnc(N2C(=O)C(C)=C(OC)C2O)cc1C(F)(F)F` (stereo not drawn) [AD73], the “ABUTH” value worked out at 5, the “ALOMY” value was 4, the “AMARE” value was 5 and the “ECHCG” value was 4. The “SETFA (Setaria faberi) damage score” value came out at 5 and the “ZEAMX (Zea mays) damage score” value is listed as 1.

For the compound `COC1=C(C)C(=O)N(c2cc(C(F)(F)F)c(OCc3cccc(OC)c3)cn2)C1O` (stereo not drawn) [AD74], the “ABUTH” value was 3, the “ALOMY” value is recorded as 2, the “AMARE” value came out at 5 and the “ECHCG” value amounted to 2. In addition, the “SETFA (Setaria faberi) damage score” value is 5 and the “ZEAMX (Zea mays) damage score” value turned out to be 1.
